Measured values: paper PMC10644722, “Discovery of inhibitors of protein tyrosine phosphatase 1B contained in a natural products library from Mexican medicinal plants and fungi using a combination of enzymatic and in silico methods**” (Frontiers in Pharmacology, 2023)
Values joined by “and” are separate entries in the source; they are usually repeats but may differ in a detail not shown here. Identical values can stand only once. “Also recorded” adds a separate entry of the source. Like-named read-outs stand apart in the source and are kept apart here.

What was measured:
PTP1B [1] = target: T1, PTP1B (Homo sapiens, UniProt P18031); assay: Kinetic analysis of PTP1B inhibition; assay type: biochemical; details: for type of inhibition: double-reciprocal plots, global nonlinear fit; for VMAX: maximum velocity, nonlinear fit, substrate 4-NP
T1 sequence (P18031 1-400): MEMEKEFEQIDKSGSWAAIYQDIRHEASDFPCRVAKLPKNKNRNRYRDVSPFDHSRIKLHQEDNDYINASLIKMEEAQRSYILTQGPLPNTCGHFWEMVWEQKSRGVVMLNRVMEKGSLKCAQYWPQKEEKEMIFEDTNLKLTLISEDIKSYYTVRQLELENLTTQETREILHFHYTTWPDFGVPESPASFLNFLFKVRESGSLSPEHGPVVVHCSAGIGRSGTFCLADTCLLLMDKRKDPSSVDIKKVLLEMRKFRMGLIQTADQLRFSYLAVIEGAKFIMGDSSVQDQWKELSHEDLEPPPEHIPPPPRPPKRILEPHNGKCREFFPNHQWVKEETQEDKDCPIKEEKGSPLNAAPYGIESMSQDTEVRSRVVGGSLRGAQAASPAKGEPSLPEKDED
Method: The conditions for preparing reagents (enzyme and substrate), incubation, and analysis of results were the same as that described in Section 2.1 ([Jiménez-Arreola et al., 2020]; [Díaz-Rojas et al., 2021]). Additional steps in the methodology are described below.
To characterize the type of inhibition exerted by 1, 3, and 6 on PTP1B, the hydrolysis of 4-NP at the sub-saturating state and increasing concentrations of each compound was measured. […] The compound concentration yielding 50% activity inhibition was interpolated from the results by fitting into a general inhibition model. The resulting set of activities was fitted globally using the non-linear regression algorithm of Levenberg–Marquardt as implemented in the Gnuplot ([Williams et al., 2017]). Each group was fitted to the kinetic equations for linear competitive, linear uncompetitive, linear non-competitive (classic), linear mixed type, parabolic competitive, parabolic uncompetitive, and parabolic non-competitive inhibition mechanisms. The best fit was ascertained by the reduced chi-squared (χ^2) value, residual distribution, and uncertainty in the parameter estimates. The best description of the inhibition data for compounds 1, 3, and 6 was obtained with Eq. 2, Eq. 3, and Eq. 4, respectively, where VMAX, KM, and KIcu, KIC, and KIU are the maximum velocity, Michaelis constant for the substrate 4-NP, and inhibition constants for each type of inhibition, respectively. v0=VMAX4NP/KM1+I/KIcu+4NP1+I/KIcu, (2) v0=VMAX4NP/KM1+I/KIC+4NP1+I/KIU, (3) v0=VMAX4NP/KM1+I/KIC+I^2/KIC2^2+4NP. (4)

hPTP1B1-400 = target: T2, hPTP1B1-400 (Homo sapiens, UniProt P18031); assay: PTP1B inhibition assay (spectrophotometric, 4-nitrophenyl phosphate); assay type: biochemical; details: for ΔA, activity difference between UA and the compound: absolute pIC50 difference against ursolic acid
T2 sequence (P18031 1-400): T1 sequence (P18031 1-400)
Method: The inhibitory activity was determined as a percentage compared to the blank (Buffer) according to the following equation: %InhibitionPTP1B=1−A405s/A405b×100%, (1) where A405(s) is the ΔA of the sample (At20 − At0), A405(b) is the ΔA of the blank obtained in the same manner as that of the sample. Using the data obtained, the enzyme inhibition curve was plotted, for which the average percentage of inhibition was plotted as a function of the inhibitor concentration.

PTP1B [2] = test system: PTP1B; set-up: method as in Lantz et al., 2010; Kumar et al., 2020; details: known inhibitors of PTP1B; ref Lantz et al., 2010; Kumar et al., 2020; cited from earlier work
[3] = DoseResp model fit, Origin 8.0, axis C (mM), read-out: LOGx0 of the IC50 curve
[4] = enzyme 66 nM, 4-NP 0.125 mM, Tris-HCl pH 6.8, 20 min, room temperature, read-out: IC50
[5] = negative log of the IC50 in Molar, read-out: pIC50 (converted)
[6] = negative log of the IC50 in Molar
[7] = Hill1 model fit, Origin 8.0, axis C (mM), read-out: k of the IC50 curve
[8] = IC50 (μM), enzyme 66 nM, 4-NP 0.125 mM, Tris-HCl pH 6.8, 20 min, room temperature
[9] = LOGx0 of the IC50 curve, DoseResp model fit, Origin 8.0, axis C (mM)
[10] = pIC50, negative log of the IC50 in Molar

## C[C@H]1C(=O)CC[C@@H]2[C@]1(C)CC[C@H]1[C@@]2(C)CC[C@@]2(C)[C@@H]3CC(C)(C)CC[C@]3(CO)CC[C@]12C [Compound 1, Canophyllol]
PTP1B [1]
  type of inhibition: non-competitive inhibitor
  VMAX: 44.1 mM/min
PTP1B [1]; non-competitive model (Eq. 2), read-out: KIcu
  Ki: 9 µM
hPTP1B1-400; 0.02 mM compound
  %I: 95.54 ± 1.82%
hPTP1B1-400; 1 mM compound
  %I: 98.59 ± 0.28%
hPTP1B1-400; [3]
  IC50: 0.0332 ± 0.00257 mM
hPTP1B1-400
  ΔA, activity difference between UA and the compound: 0.2
hPTP1B1-400; [4]
  IC50: 0.0332 ± 3e-06 mM
hPTP1B1-400; [5]
  IC50: 0.0331 mM

## COc1c(O)cc2ccc3cccc(O)c3c2c1OC [Compound 3, 3,4-Dimethoxy-2,5-phenanthrenediol]
PTP1B [1]
  type of inhibition: mixed-type; also recorded: mixed inhibitor
  VMAX: 56.1 mM/min
PTP1B [1]; mixed type (Eq. 3) or parabolic competitive model (Eq. 4), read-out: KIC
  Ki: 40 µM
PTP1B [1]; mixed type model (Eq. 3), read-out: KIU
  Ki: 110 µM
hPTP1B1-400; 0.02 mM compound
  %I: 70.62 ± 0.58%
hPTP1B1-400; 1 mM compound
  %I: 97.4 ± 0.69%
hPTP1B1-400; [3]
  IC50: 0.0477 ± 0.0982 mM
hPTP1B1-400
  ΔA, activity difference between UA and the compound: 0.34 and 0.3
hPTP1B1-400; [4]
  IC50: 0.0477 ± 0.0001 mM
hPTP1B1-400; [5]
  IC50: 0.0479 mM

## CC(=O)OC[C@H]1O[C@@H](Oc2cc(O)cc3oc(=O)cc(-c4ccc(O)c(O)c4)c23)[C@H](O)[C@@H](O)[C@H]1O [Compound 67, 6''-O-acetyl-5-O-β-D-galactopyranosyl-7,3',4'-trihydroxy-4-phenylcoumarin]
hPTP1B1-400; [3]
  IC50: 0.254 ± 0.203 mM
hPTP1B1-400
  ΔA, activity difference between UA and the compound: 1.1
hPTP1B1-400; [4]
  IC50: 0.2543 ± 0.0002 mM
hPTP1B1-400; [6]
  pIC50: 3.59

## COc1cc(O[C@@H]2O[C@H](CO[C@@H]3OCC(O)(CO)[C@H]3O)[C@@H](O)[C@H](O)[C@H]2O)c2c(-c3ccc(O)c(O)c3)cc(=O)oc2c1 (stereo partly drawn) [Compound 73, 5-O-β-D-Apiofuranosyl-(1→6)-β-D-glucopyranosyl-7-metoxi-3'-4'-dihydroxy-4-phenylcoumarin]
hPTP1B1-400; [3]
  IC50: 0.359 ± 0.0682 mM
hPTP1B1-400
  ΔA, activity difference between UA and the compound: 1.2
hPTP1B1-400; [4]
  IC50: 0.3586 ± 7e-05 mM
hPTP1B1-400; [6]
  pIC50: 3.45

## O=C(O[C@@H]1Cc2c(O)cc(O)cc2O[C@@H]1c1ccc(O)c(O)c1)c1cc(O)c(O)c(O)c1 [Compound 82, (-)-Epicatechin 3-O-gallate]
hPTP1B1-400; [7]
  IC50: 0.142 ± 0.00656 mM
hPTP1B1-400
  ΔA, activity difference between UA and the compound: 0.8
hPTP1B1-400; [4]
  IC50: 0.1424 ± 7e-06 mM
hPTP1B1-400; [6]
  pIC50: 3.85

## CCC(C=CC(C)C1CCC2C3=CCC4CC(O)CCC4(C)C3CCC21C)C(C)C (stereo not drawn) [Compound 84, α-Spinasterol]
hPTP1B1-400; [3]
  IC50: 0.989 ± 0.137 mM
hPTP1B1-400
  ΔA, activity difference between UA and the compound: 1.7 and 1.66
hPTP1B1-400; [4]
  IC50: 0.9891 ± 0.00014 mM
hPTP1B1-400; [5]
  IC50: 1 mM

## CC[C@H](/C=C/[C@@H](C)[C@H]1CC[C@H]2C3=CC[C@H]4C[C@@H](OC(C)=O)CC[C@]4(C)[C@H]3CC[C@]12C)C(C)C [Compound 85, α-Spinasterol acetate]
hPTP1B1-400; [8]
  IC50: 0.2772 ± 1e-05 mM
hPTP1B1-400; [9]
  IC50: 0.277 ± 0.0114 mM
hPTP1B1-400
  ΔA, activity difference between UA and the compound: 1.1
hPTP1B1-400; [10]
  IC50: 0.275 mM

## COC(=O)/C(C)=C\CC[C@H](C)[C@@H]1CC[C@]2(C)C3=CCC4C(C)(C)C(=O)CC[C@]4(C)C3CC[C@@]12C (stereo partly drawn) [Compound 86, Methyl ester of masticadienonic acid]
hPTP1B1-400; [3]
  IC50: 0.325 ± 0.00894 mM
hPTP1B1-400
  ΔA, activity difference between UA and the compound: 1.2
hPTP1B1-400; [4]
  IC50: 0.3245 ± 1e-06 mM
hPTP1B1-400; [5]
  IC50: 0.324 mM

## CC(=CCCC(C)C1CCC2(C)C3=C(CCC12C)C1(C)CCC(=O)C(C)(C)C1CC3)C(=O)O (stereo not drawn) [Compound 89, Isomasticadienonic acid]
hPTP1B1-400; [3]
  IC50: 0.419 ± 0.00938 mM
hPTP1B1-400
  ΔA, activity difference between UA and the compound: 1.3 and 1.28
hPTP1B1-400; [4]
  IC50: 0.419 ± 1e-05 mM
hPTP1B1-400; [5]
  IC50: 0.417 mM

## CC(=O)OCC(C)C1CCC2(C)C1CCC1(C)C2CCC2C3(C)CCCC(C)(C)C3CCC21C (stereo not drawn) [Compound 90, 21-α-H-Hopane acetate]
hPTP1B1-400; [7]
  IC50: 0.884 ± 0.213 mM
hPTP1B1-400
  ΔA, activity difference between UA and the compound: 1.6 and 1.61
hPTP1B1-400; [4]
  IC50: 0.8839 ± 0.0002 mM
hPTP1B1-400; [5]
  IC50: 0.891 mM

## COc1cc(CCc2ccc(OC)c(OC)c2)cc(OC)c1 [Compound 91, 3,3',4',5-Tetramethoxybibenzyl]
hPTP1B1-400; [8]
  IC50: 0.4195 ± 6e-06 mM
hPTP1B1-400; [9]
  IC50: 0.42 ± 0.00629 mM
hPTP1B1-400
  ΔA, activity difference between UA and the compound: 1.3
hPTP1B1-400; [10]
  IC50: 0.417 mM

## CC1(C)C=Cc2cc3ccc(=O)oc3cc2O1 [Compound 93, Xanthyletin]
hPTP1B1-400; [7]
  IC50: 0.865 ± 0.148 mM
hPTP1B1-400
  ΔA, activity difference between UA and the compound: 1.6
hPTP1B1-400; [4]
  IC50: 0.8646 ± 0.00015 mM
hPTP1B1-400; [5]
  IC50: 0.871 mM

## COc1c2c(cc3oc(C)cc(=O)c13)OC(C)(C)[C@H](O)C2 [Compound 94, (+)-5-Methoxyhamaudol]
hPTP1B1-400; [7]
  IC50: 0.298 ± 0.146 mM
hPTP1B1-400
  ΔA, activity difference between UA and the compound: 1.1
hPTP1B1-400; [4]
  IC50: 0.2985 ± 0.00015 mM
hPTP1B1-400; [6]
  pIC50: 3.53

## C=CC(C)(C)C12CC3(O)c4nc5ccccc5c(=O)n4C(C(C)C)C(=O)N3C1N(C(C)=O)c1ccccc12 (stereo not drawn) [Compound 96, Albolutein A]
hPTP1B1-400
  ΔA, activity difference between UA and the compound: -0.1
hPTP1B1-400; [4]
  IC50: 0.0191 ± 0.0014 mM
hPTP1B1-400; [5]
  IC50: 0.0191 mM

## C=CC(C)(C)[C@@]12Nc3ccccc3[C@]1(O)C[C@@]1(O)c3nc4ccccc4c(=O)n3[C@@H](C(C)C)C(=O)N12 [Compound 97, Albolutein B]
hPTP1B1-400
  ΔA, activity difference between UA and the compound: 0.1
hPTP1B1-400; [4]
  IC50: 0.0258 ± 0.0258 mM
hPTP1B1-400; [6]
  pIC50: 4.59

## Cc1cc(-c2c3ccccc3c(Br)c3sc(C)c(C)c23)cc(C)c1O[C@H](Cc1ccccc1)C(=O)O [E, ertiprotafib]
PTP1B [2]
  pIC50: 4.70

## CC(C)[C@@H](CC[C@@H](C)[C@H]1CC[C@H]2[C@@H]3[C@H](O)C[C@H]4C[C@@H](NCCCNCCCCNCCCN)CC[C@]4(C)[C@H]3CC[C@]12C)OS(=O)(=O)O [T, trodusquemine]
PTP1B [2]
  pIC50: 6.0

## Albolutein C [Compound 98]
hPTP1B1-400
  ΔA, activity difference between UA and the compound: 0.8
hPTP1B1-400; [4]
  IC50: 0.13 ± 0.0026 mM
hPTP1B1-400; [6]
  pIC50: 3.89

## Calein A [Compound 46]
hPTP1B1-400; [3]
  IC50: 0.234 ± 0.0196 mM
hPTP1B1-400
  ΔA, activity difference between UA and the compound: 1.0
hPTP1B1-400; [4]
  IC50: 0.2345 ± 2e-05 mM
hPTP1B1-400; [6]
  pIC50: 3.63
